Source: ChEMBL document CHEMBL2074200, “Reversal of P-glycoprotein-mediated MDR by 5,7,3',4',5'-pentamethoxyflavone and SAR” (Biochem Biophys Res Commun, 2004)

Target: ATP-dependent translocase ABCB1 (Homo sapiens, UniProt P08183)
Assay: TP_TRANSPORTER: increase in Rhodamine 123 intracellular accumulation in AML-2/D100 cells
Assay type: functional, cell-based

Chain of ATP-dependent translocase ABCB1 (P08183 whole entry): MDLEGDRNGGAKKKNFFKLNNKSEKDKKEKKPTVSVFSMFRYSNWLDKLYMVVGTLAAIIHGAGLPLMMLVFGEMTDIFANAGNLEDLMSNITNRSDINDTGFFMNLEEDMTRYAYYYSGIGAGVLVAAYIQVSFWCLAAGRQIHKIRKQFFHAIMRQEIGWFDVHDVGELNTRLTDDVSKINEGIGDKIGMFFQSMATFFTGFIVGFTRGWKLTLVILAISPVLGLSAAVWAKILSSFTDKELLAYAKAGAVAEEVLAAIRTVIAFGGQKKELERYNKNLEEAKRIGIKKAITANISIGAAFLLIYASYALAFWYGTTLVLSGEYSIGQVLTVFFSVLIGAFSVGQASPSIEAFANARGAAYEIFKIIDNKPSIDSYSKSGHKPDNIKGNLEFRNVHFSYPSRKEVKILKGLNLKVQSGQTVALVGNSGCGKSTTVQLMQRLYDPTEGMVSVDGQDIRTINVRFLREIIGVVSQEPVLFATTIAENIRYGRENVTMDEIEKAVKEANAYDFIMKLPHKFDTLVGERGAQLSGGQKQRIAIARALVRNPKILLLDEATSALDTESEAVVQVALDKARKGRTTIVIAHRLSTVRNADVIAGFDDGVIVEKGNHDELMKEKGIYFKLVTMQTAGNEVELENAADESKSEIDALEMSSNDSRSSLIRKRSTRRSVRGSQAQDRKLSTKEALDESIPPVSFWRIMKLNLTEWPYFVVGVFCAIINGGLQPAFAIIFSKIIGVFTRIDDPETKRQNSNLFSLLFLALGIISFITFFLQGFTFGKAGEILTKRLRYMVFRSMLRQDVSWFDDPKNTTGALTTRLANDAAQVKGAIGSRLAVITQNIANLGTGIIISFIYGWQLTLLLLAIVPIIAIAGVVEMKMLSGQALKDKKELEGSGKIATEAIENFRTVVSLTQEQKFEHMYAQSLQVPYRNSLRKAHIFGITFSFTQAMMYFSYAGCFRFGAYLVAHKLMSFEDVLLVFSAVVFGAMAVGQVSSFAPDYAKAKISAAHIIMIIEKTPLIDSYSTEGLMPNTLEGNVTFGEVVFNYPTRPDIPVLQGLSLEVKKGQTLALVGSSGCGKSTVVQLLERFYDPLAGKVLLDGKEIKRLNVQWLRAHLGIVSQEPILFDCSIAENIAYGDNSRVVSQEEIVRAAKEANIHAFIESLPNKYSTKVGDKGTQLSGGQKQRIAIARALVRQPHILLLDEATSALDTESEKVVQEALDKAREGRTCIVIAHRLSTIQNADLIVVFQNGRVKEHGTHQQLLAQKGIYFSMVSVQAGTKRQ

- Activity: inhibitor [+]
Structure (SMILES): COc1cc(OC)c2c(=O)cc(-c3cc(OC)c(OC)c(OC)c3)oc2c1
